Three compounds from ChEMBL document CHEMBL4613321, “Discovery of Small-Molecule Stabilizers of 14-3-3 Protein-Protein Interactions via Dynamic Combinatorial Chemistry” (ACS Med Chem Lett, 2020) can be followed below.

As a reminder, the Kd is the equilibrium constant for the complex coming apart. Read a low Kd as a tighter complex. As a reminder, the EC50 is the concentration that produces a half-maximal response.

Activity calls are given as the source filed them. The rule behind the calls is not given here.

In experiment [1] the target is T1, 14-3-3 protein zeta/delta (Homo sapiens, UniProt P63104).
T1 sequence (P63104 whole entry): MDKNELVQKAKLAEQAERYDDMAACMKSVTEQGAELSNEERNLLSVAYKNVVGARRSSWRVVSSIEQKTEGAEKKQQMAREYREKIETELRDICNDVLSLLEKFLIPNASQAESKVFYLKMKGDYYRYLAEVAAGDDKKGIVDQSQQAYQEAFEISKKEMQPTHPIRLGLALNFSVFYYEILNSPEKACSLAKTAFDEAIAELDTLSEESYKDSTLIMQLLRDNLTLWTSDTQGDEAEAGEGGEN
Kind of experiment: Binding affinity to 14-3-3 zeta (unknown origin) by SPR analysis.

Experiment [2] has as its target T2, 14-3-3 protein zeta/delta (Homo sapiens) (UniProt P63104).
T2 sequence (whole entry): T1 sequence (P63104 whole entry)
Kind of experiment: Binding affinity to 14-3-3 zeta (unknown origin) assessed as half life for dissociation by SPR analysis.

Experiment [3] concerns the target T2, 14-3-3 protein zeta/delta (Homo sapiens). Kind of experiment: Binding affinity to 14-3-3 zeta (unknown origin) assessed as dissociation rate constant by SPR analysis.
Experiment [4] shares this target. The experiment in a line: Binding affinity to 14-3-3 zeta (unknown origin) assessed as response unit at 3.1 to 50 uM by SPR analysis. A general note: In SPR one partner is held on a chip, and binding of the other changes the refractive index at the surface.
The target is the same in experiment [5]. The experiment in a line: Competitive binding affinity to 14-3-3 zeta (unknown origin) at 25 uM in presence of 1 uM synaptopodin by SPR analysis.
Experiment [6] has the same target. Kind of experiment: Binding affinity to 14-3-3 zeta (unknown origin) assessed as association rate constant by SPR analysis.
Experiment [7] concerns the target T1, 14-3-3 protein zeta/delta. Kind of experiment: Binding affinity to 14-3-3 zeta (unknown origin) assessed as 14-3-3 zeta-synaptopodin interaction by fluorescence polarization assay. Background: Polarisation of emitted light reports the rotation of a fluorescent probe.
Experiment [8] concerns the target T2, 14-3-3 protein zeta/delta (Homo sapiens). The experiment in a line: Competitive binding affinity to 14-3-3 zeta (unknown origin) at 1000 uM in presence of 1 uM synaptopodin by SPR analysis.
The target is the same in experiment [9]. The experiment in a line: Competitive binding affinity to 14-3-3 zeta (unknown origin) at 1000 uM in presence of 25 uM synaptopodin by SPR analysis.
For experiment [10] the target is unchanged. The experiment in a line: Competitive binding affinity to 14-3-3 zeta (unknown origin) at 200 uM in presence of 1 uM synaptopodin by SPR analysis.

In experiment [1], `O=C(N/N=C/c1cccc(Br)c1)c1cc2c(s1)CCCC2` returned a Kd of 16 µM. Moreover, in experiment [2], the T1/2 was 17 s. The Kdiss in [3] worked out at 4.1 ×10⁻² /s. The RUmax in [4] was 4.6. In experiment [5], the outcome was Active. For the same compound, the Ka in [6] amounted to 2.6 ×10³ /M/s.

For `O=C(N/N=C/c1cccc(Cl)c1Cl)c1ccccc1P(=O)(O)O`, the EC50 in experiment [7] is 120 µM. Besides, the outcome in experiment [8], in experiment [9] and in experiment [10] was Active. For the same compound, in [1], the affinity, expressed as Kd, was 1010 µM.

Regarding `O=C(N/N=C/c1cccc(Cl)c1Cl)c1cc2c(s1)CCCC2`, binding in experiment [1] was put at a Kd of 15 µM. The T1/2 in [2] came out at 80 s. Further, the Kdiss in experiment [3] stood at 8.7 ×10⁻³ /s. In [4], the RUmax was 4.5. For the same compound, the result in [5] was Active. Further, the Ka in experiment [6] was 5.8 ×10² /M/s.
